One test has as its system myocardial cells. Nature of the test: SOD activity (Hydroxylamine method) in hypoxia/reoxygenation injured myocardial cells. It counts as cell-based, Sprague-Dawley (SD) rat. The procedure: Myocardial cell samples were obtained from the same procedure of Example 1, the experiment groups were divided and hypoxia/reoxygenation experiments were performed on Control group, Vehicle group, SAC and analogue groups, same as the experiments in Example 1 with the same dosages and same conditions. Myocardial cells were obtained from each sample (10^6 myocardial cells/sample) from the Control group, Vehicle group, SAC and analogue groups. The cells were lysed under sterilized condition, and SOD (superoxide dismutase) activities in each sample of the cells were determined by Hydroxylamine method (a conventional method well known in the arts) using each microgram of protein per 1 milliliter reaction solution inhibits SOD activity to its 50% of original activity, in which the amount of SOD used in the reaction as standard of 1 unit of SOD activity.

Test [1] relates to rats following MI injury. Nature of the test: Infarct size after TTC staining in rats following MI injury. It counts as in vivo, SD rats. The conditions noted are these: 50 mg/Kg/day intraperitoneal, 7 days before and 2 days after ligation, 48 h after surgery, saline 36.0±1.3%. The procedure:
(§1) SPRC and SAC were dissolved in saline (vehicle). Male SD rats (weight 200-250 g) were randomly assigned to […] treatment groups: group (1) Sham group: Sham-treated with saline (n=4), (2) Sham+SPRC group: Sham-treated with SPRC (50 mg/Kg/day) (n=4), (3) Sham+SAC group: Sham-treated with SAC (50 mg/Kg/day) (n=4), (4) MI group: MI treated with saline (n=8), (5) MI+SPRC group: MI treated with SPRC (50 mg/Kg/day) (n=8), (6) MI+SAC group: MI treated with SAC (50 mg/Kg/day) (n=8). Rats were pre-treated for seven days with each SAC analogues respectively via an intraperitoneal injection once daily before they were used for MI model studies. […] Briefly, the rats were anesthetized with 7% choral hydrate (60 mg/kg intraperitoneal injection), endotracheally intubated and mechanically ventilated with room air, respiratory rate 100 breaths/min, tidal volume 2.5 ml with a rodent ventilator (DHX-150, China). ECG was recorded in the anaesthetized animal for a period of one minute using the Animal Mflab200 amplifier (Produced in China). A left thoracotomy was performed and the third intercostal space was exposed. […] Then incisions were sutured and the chests were closed. […] Forty eight hours after the surgery, ECG was recorded for each rat in each group. […] To evaluate the effect of SPRC and SAC on MI, infarct size were measured after TTC staining (FIG. 12).

Test [2] concerns rats following MI injury. Nature of the test: ECG in rats following MI injury. Format: in vivo, SD rats. The conditions noted are these: 50 mg/Kg/day, day 10, 48 hr after the induction of MI. The procedure: as §1
The next test relates to Bcl-2 mRNA. Nature of the test: RT-PCR of Bcl-2 mRNA in left ventricle. Format: in vivo, SD rats. To be noted: MI rats, 50 mg/Kg/day, p>0.05. The source says: Animals were assigned and prepared the same as in Example 7, and dosages of SPRC and SAC were used the same in this example as in Example 7.
To further verify the effects of SPRC and SAC, the expressions of Bcl-2, Bax and CSE mRNA were accessed by RT-PCR (FIG. 17). An isoform of the CSE gene was detected (GenBank; access no. AY641456). The relative amounts of CSE mRNA in Left ventricular subjected to MI were increase 3.3-fold and 1.5-fold following SPRC and SAC exposure as compared to the MI group.

The subject of test [3] is H9c2 cells. Nature of the test: H9c2 cell viability by MTT method after H2O2 injury. Format: cell-based. The conditions noted are these: H2O2 200 μmol/L 2 hours; SPRC Low Dose 10^−7 mol/L. As for the experimental part:
(§2) H9c2 cells were cultured in DMEM with 10% of fetal bovine serum, 37 degree C. and 5% CO2 incubator. The monolayer culture was split at a 1:4 ratio or harvested to perform experiments when confluence was 70-80%. Adjust the density of the cells to […] and inoculate the cells on a 96 well plate.
Control group, no SAC analogues treatment, no H2O2 injured process.
(§3) H2O2 injury (Model) group, no SAC analogues treatment, under H2O2 200 μmol/L for 2 hours.
(§4) PAG group, PAG 10^−4/mol/L
(§5) SPRC dosage groups: SPRC 1E-7, SPRC 1E-6, SPRC 1E-5, the cell groups were treated with SPRC dosages of 10^−7 mol/L, 10^−6 mol/L, 10^−5 mol/L respectively.
(§6) SPRC dosage+PAG groups: the cell group was treated with SPRC dosages of 10^−5 mol/L and PAG 10^−4 mol/L.
H9c2 cell viability was assessed by MTT method. […] PAG is able to block the effect of SPRC.
A general note: Formazan colour is commonly taken as a measure of viable cells.

The test system of test [4] is H9c2 cells. Nature of the test: LDH leakage of H9c2 cells injured by H2O2. It counts as cell-based. The conditions noted are these: for LDH Leakage: H2O2 200 μmol/L 2 hours. The procedure: as §2, §3, §4, §5, §6
The cell samples (10^6 cells/sample) from each group were lysed under sterilized condition, and LDH contents in each samples were tested by pyruvic acid production method.
For orientation: Release of lactate dehydrogenase indicates damage to the cell membrane.

The subject of test [5] is H9c2 cells. Nature of the test: Apoptosis of H9c2 cells, Hoechst and PI double stain. The conditions noted are these: H2O2 injured H9c2; Hoechst 33342 and PI double stain. It counts as cell-based. As for the experimental part:
H9c2 cells were cultured same as Example 12, the cells were then divided into the groups same as Example 12.
Cells were washed in PBS and then stained with Hoechst 33342 (10 μg/ml) and propidium iodide (10 μg/ml) for 10 min at 37° C. Cells were washed again with PBS and fixed with 3.7% paraformaldehyde (v/v). Each field of cells was photographed twice (magnification, ×400), using appropriate filters to examine and compare Hoechst 33342 and PI fluorescence staining in the same cells. […]. Apoptosis is of great damage to the structure and the function of the heart, which leads to heart failure.

Test [6] relates to H9c2 cells. Nature of the test: Endogenous H2S level in H2O2 injured H9c2 cells. Format: cell-based. The conditions noted are these: SPRC treatments. The text has this: Similar experiments are done on cultured H9c2 cardiac muscle cells groups with the same experiment condition and different dosages of SPRC treatments. The results of the experiments confirm that endogenous H2S level in H2O2 injured H9c2 cells is elevated by SPRC treatments. […] It is also observed that the apoptosis of hypoxic myocardial cells is decreased, the survival rate of the in H2O2 injured H9c2 cells is increased and the LDH releasing from the in H2O2 injured H9c2 cells are reduced by three dosages of SPRC treatment.

For the molecule `C#CCSC[C@H](N)C(=O)O` [SPRC, S-propargyl-cysteine], in the test on myocardial cells (10^−5 mol/L), the “Mn-SOD activity in mitochondria” value was “able to elevate”. Further, the “effect of PAG on elevating Mn-SOD activity” value with myocardial cells (with PAG) is “PAG also reversed”. For the same molecule, the “infarct size/total area of myocardium” value with rats following MI injury [1] was 20.8±2.4%. In the test on rats following MI injury [2], the “ST-segment elevation in ECG” value is “less elevated ST-segment”. In the test on Bcl-2 mRNA, the Bcl-2 gene expression entry is “no significant differences”. For the same molecule, the “H9c2 Cell Survive” value in the test on H9c2 cells [3] is reported as 62.4 ± 1.6%. In addition, the results for the “LDH Leakage” value in the test with H9c2 cells [4] (SPRC High Dose 10^−5 mol/L), in the test on H9c2 cells [4] (SPRC Low Dose 10^−7 mol/L) and in the test on H9c2 cells [4] (SPRC middle Dose 10^−6 mol/L) were 43.9 ± 3.0 %, 51.4 ± 1.8% and 50.0 ± 2.6 %, respectively. The “LDH leakage compared with model group” value in the test with H9c2 cells [4] (H2O2 injured H9c2, SPRC groups (10^−7 to 10^−5 mol/L)) is “less LDH leakage than that of model group”. For the same molecule, the “apoptosis of H9c2 cells” value in the test with H9c2 cells [5] was “effective on inhibiting apoptosis of H9c2 cells”. Also, in the test with H9c2 cells [6], the “endogenous H2S level” value is on record as “elevated”.

(Values after US8623919B2, “Method of synthesizing S-allyl-cysteine analogues and their therapeutic application in treating myocardial infarction” (Fudan University, priority 2007, dated 2014).)
